Measured values: patent US20220315577A1, “NEW EGFR INHIBITORS” (Hoffmann-La Roche Inc., priority 2019, published 2022)

Each molecule was assayed against T1, EGFR TMLRCS (T790M/L858R/C797S), BaF3-TMLRCS cell line (Homo sapiens, UniProt P00533, C797S/L858R/T790M) (assay: HTRF Phospho EGFR TMLRCS assay (cellular)). Details: BaF3-TMLRCS cells, 4 hours incubation, Phospho-EGFR HTRF readout.
T1 construct: host or cells: BaF3 (BaF3-TMLRCS, puromycin selection)
Format: cell-based
Experimental: HTRF Phospho EGFR TMLRCS Assay (Cellular)
BaF3-TMLRCS cell line were obtained from Crownbio (San Diego, Calif., USA). Cells were maintained at 37° C., 5% CO2 in RPMI ATCC (Gibco 31870)+2 mM Glutamine+0.5 μg/ml Puromycin supplemented with 10% fetal bovine serum (FBS) (Gibco).
Cells are transferred as above to Greiner Bio-One, Nr. 784-08 micro-titerplate at 20000 cells/well in 12.5 μl of growth medium/well after the plates had been pre-filled with 12.5 nl of DMSO solutions of the to be tested compounds (in dose response) or DMSO only. After spinning the plates at 300×g for 30 seconds the cells were incubated for 4 hours at 37 C, 5% CO2, 95% humidity. The cells were lysed by adding to the compound mix 4 μl/well of the supplemented lysis buffer (Cis-bio, Phospho-EGFR HTRF kit, 64EG1PEH), followed by incubation for 30 min at room temperature with shaking (400 rpm). The plates were then frozen and stored overnight at −80 C. On the next day and after thawing the plates, 4 μl of a mixture of anti-Phospho-EGFR Cryptate and of anti-Phospho-EGFR-d2 antibody solutions prepared in the supplied detection buffer was added to each well. The lidded plates were then incubated for 4 h at room temperature before reading the fluorescence emission at 616 and 665 nm using an Envision reader (Perkin Elmer). Data was analyzed in similar fashion as above using the normalized ratio of the 665 to 616 signals multiplied by 10000.

T1 sequence (P00533 25-1210 T790M/C797S/L858R): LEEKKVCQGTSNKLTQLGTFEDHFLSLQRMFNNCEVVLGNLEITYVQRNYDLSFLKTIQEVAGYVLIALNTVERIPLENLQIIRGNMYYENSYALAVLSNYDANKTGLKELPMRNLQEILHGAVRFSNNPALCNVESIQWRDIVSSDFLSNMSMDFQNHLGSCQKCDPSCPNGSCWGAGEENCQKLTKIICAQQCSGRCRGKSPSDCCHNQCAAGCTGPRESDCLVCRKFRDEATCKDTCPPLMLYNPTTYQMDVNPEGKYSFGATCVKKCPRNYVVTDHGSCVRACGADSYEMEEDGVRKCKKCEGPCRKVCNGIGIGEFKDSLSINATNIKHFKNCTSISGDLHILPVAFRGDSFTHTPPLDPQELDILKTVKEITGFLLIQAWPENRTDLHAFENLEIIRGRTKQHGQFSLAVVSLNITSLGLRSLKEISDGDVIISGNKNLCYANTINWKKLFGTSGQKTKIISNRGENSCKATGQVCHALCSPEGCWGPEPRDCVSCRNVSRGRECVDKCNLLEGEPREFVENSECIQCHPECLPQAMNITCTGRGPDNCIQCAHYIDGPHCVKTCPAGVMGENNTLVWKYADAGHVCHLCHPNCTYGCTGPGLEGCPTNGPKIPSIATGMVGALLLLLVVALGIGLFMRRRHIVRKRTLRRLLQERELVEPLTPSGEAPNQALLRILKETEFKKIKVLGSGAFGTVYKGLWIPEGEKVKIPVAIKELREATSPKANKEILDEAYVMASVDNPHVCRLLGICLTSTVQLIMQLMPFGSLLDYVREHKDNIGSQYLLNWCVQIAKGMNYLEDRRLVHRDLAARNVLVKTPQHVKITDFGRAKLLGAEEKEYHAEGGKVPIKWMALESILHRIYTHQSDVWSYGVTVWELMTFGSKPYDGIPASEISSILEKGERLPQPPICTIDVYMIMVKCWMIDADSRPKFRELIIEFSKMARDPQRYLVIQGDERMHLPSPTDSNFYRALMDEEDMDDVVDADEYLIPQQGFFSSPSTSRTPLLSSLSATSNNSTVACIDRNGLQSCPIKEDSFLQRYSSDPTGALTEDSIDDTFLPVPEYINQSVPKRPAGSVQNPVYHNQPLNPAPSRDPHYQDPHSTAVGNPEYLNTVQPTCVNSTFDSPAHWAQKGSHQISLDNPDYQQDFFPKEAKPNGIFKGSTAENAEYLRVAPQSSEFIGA

Compound | IC50 [nM]
O=C(Nc1nccs1)C(c1cc(F)ccc1O)N1Cc2c(F)cc(-c3ccc(C4CCN(CCF)CC4)cc3)cc2C1=O (racemic) [Example 3, (2RS)-2-[4-Fluoro-6-[4-[1-(2-fluoroethyl)-4-piperidyl]phenyl]-1-oxo-isoindolin-2-yl]-2-(5-fluoro-2-hydroxy-phenyl)-N-thiazol-2-yl-acetamide] | 9
CCN1CCC(c2ccc(-c3cc(F)c4c(c3Cl)C(=O)N(C(C(=O)Nc3nccs3)c3cc(F)ccc3O)C4)cc2)CC1 (racemic) [Example 2, (2RS)-2-[7-Chloro-6-[4-(1-ethyl-4-piperidyl)phenyl]-4-fluoro-1-oxo-isoindolin-2-yl]-2-(5-fluoro-2-hydroxy-phenyl)-N-thiazol-2-yl-acetamide] | 11
CCN1CCC(c2ccc(-c3cc(F)c4c(c3)C(=O)N(C(C(=O)Nc3nccs3)c3cc(F)ccc3O)C4)cc2)CC1 (racemic) [Example 1, (2RS)-2-[6-[4-(1-Ethyl-4-piperidyl)phenyl]-4-fluoro-1-oxo-isoindolin-2-yl]-2-(5-fluoro-2-hydroxy-phenyl)-N-thiazol-2-yl-acetamide] | 12
